# Test results: patent US8178506B2, “Oligomeric compounds and compositions for use in modulation of small non-coding RNAs” (Regulus Therapeutics Inc., priority 2003, dated 2012)
# In the oligonucleotide strings, read from the 5' end, every base follows the letter of its sugar. An asterisk marks phosphorothioate; unmarked linkages are phosphodiester. Other units and linkages are bracketed, terminal groups are in braces. A string of capitals states the bases alone. e = 2'-O-(2-methoxyethyl) (MOE); [5mC] = 5-methylcytosine
# Legend:
# [1] = test system: PPARγ; assay: PPARγ mRNA expression in adipocytes (real-time PCR); format: cell-based, human; settings: for PPAR gamma mRNA: differentiating adipocytes transfected with oligomeric compound; for PPAR gamma (mRNA expression): adipocytes, 250 nM oligomeric compound, day nine post-transfection, relative to control (1.0)
# [2] = test system: HuVECs; assay: Endothelial tube formation assay in HuVECs; settings: 75 nM oligomeric compound, Table 56
# [3] = test system: aP2; assay: aP2 mRNA expression in adipocytes (real-time PCR); format: cell-based, human; settings: for aP2 mRNA: Table 75; for AP2 (mRNA expression): adipocytes, 250 nM oligomeric compound, day nine post-transfection, relative to control (1.0)
# [4] = test system: HSL; assay: HSL mRNA expression in adipocytes (real-time PCR); format: cell-based, human; settings: for HSL mRNA: differentiating adipocytes transfected with oligomeric compound; for HSL (mRNA expression): adipocytes, 250 nM oligomeric compound, day nine post-transfection, relative to control (1.0)
# [5] = test system: adipocytes; assay: Triglyceride accumulation assay in adipocytes; format: cell-based, human
# [6] = test system: Glut4; assay: Glut4 mRNA expression in adipocytes (real-time PCR); format: cell-based, human; settings: for GLUT4 mRNA: differentiating adipocytes transfected with oligomeric compound; for Glut4 (mRNA expression): adipocytes, 250 nM oligomeric compound, day nine post-transfection, relative to control (1.0)
# [7] = differentiating adipocytes transfected with oligomeric compound
# [8] = differentiating adipocytes transfected with oligomeric compound, Table 75
# [9] = adipocytes, 250 nM oligomeric compound, relative to control (1.0), Table 15
# [10] = adipocytes, 250 nM oligomeric compound, relative to control (1.0), Table 16
Substance,% Activity Relative to UTC (tube formation) [2],PPAR gamma (mRNA expression) ([1]; Table 15),PPAR gamma (mRNA expression) ([1]; Table 16),AP2 (mRNA expression) ([3]; Table 15),AP2 (mRNA expression) ([3]; Table 16),HSL (mRNA expression) ([4]; Table 15),HSL (mRNA expression) ([4]; Table 16),"TG (triglyceride accumulation) [5, 9]","TG (triglyceride accumulation) [5, 10]",Glut4 (mRNA expression) ([6]; Table 15),Glut4 (mRNA expression) ([6]; Table 16),also measured
327886 (antisense e[5mC]*eG*e[5mC]*eG*eT*eA*e[5mC]*e[5mC]*eA*eA*eA*eA*eG*eT*eA*eA*eT*eA*eA*eT*eG) [compound 327886],42.9%,–,–,–,–,–,–,–,–,–,–,"PPAR gamma mRNA ([1]; Table 75): 25 percentage of untreated control (UTC); aP2 mRNA [3, 7]: 19 percentage of untreated control (UTC); HSL mRNA ([4]; Table 75): 22 percentage of untreated control (UTC); TG (triglyceride accumulation) [5, 8]: 12 percentage of untreated control (UTC); GLUT4 mRNA ([6]; Table 75): 13 percentage of untreated control (UTC)"
327887 (antisense eG*e[5mC]*eG*eA*e[5mC]*e[5mC]*eA*eT*eG*eG*e[5mC]*eT*eG*eT*eA*eG*eA*e[5mC]*eT*eG*eT*eT*eA) [compound 327887],57.1%,–,–,–,–,–,–,–,–,–,–,"PPAR gamma mRNA ([1]; Table 75): 81 percentage of untreated control (UTC); aP2 mRNA [3, 7]: 60 percentage of untreated control (UTC); HSL mRNA ([4]; Table 75): 53 percentage of untreated control (UTC); TG (triglyceride accumulation) [5, 8]: 54 percentage of untreated control (UTC); GLUT4 mRNA ([6]; Table 75): 43 percentage of untreated control (UTC)"
327888 (antisense eA*eA*eT*eG*e[5mC]*e[5mC]*e[5mC]*e[5mC]*eT*eA*eA*eA*eA*eA*eT*e[5mC]*e[5mC]*eT*eT*eA*eT) [compound 327888],100.0%,1.36,0.66,1.18,0.47,1.38,0.50,0.98,0.44,1.37,0.17,"PPAR gamma mRNA [1]: 103 percentage of untreated control (UTC); AP2 mRNA [3, 7]: 102 percentage of untreated control (UTC); HSL mRNA [4]: 134 percentage of untreated control (UTC); TG (triglyceride accumulation) [5, 7]: 132 percentage of untreated control (UTC); GLUT4 mRNA [6]: 84 percentage of untreated control (UTC)"
327889 (antisense eG*eT*eG*eG*eT*eA*eA*eT*e[5mC]*e[5mC]*e[5mC]*eT*eG*eG*e[5mC]*eA*eA*eT*eG*eT*eG*eA*eT) [compound 327889],50.0%,0.71,0.82,0.69,0.57,0.59,0.54,0.47,0.46,0.55,0.46,–
327890 (antisense eA*eG*e[5mC]*eA*e[5mC]*eA*eA*eA*e[5mC]*eT*eA*e[5mC]*eT*eA*e[5mC]*e[5mC]*eT*e[5mC]*eA) [compound 327890],92.9%,1.18,0.94,0.91,0.69,0.86,0.67,0.92,0.61,1.10,0.67,–
327892 (antisense eA*e[5mC]*eT*eT*eT*e[5mC]*eG*eG*eT*eT*eA*eT*e[5mC]*eT*eA*eG*e[5mC]*eT*eT*eT*eA) [compound 327892],57.1%,0.32,–,0.31,–,0.25,–,0.42,–,0.07,–,–
327893 (antisense eA*eA*e[5mC]*e[5mC]*eA*e[5mC]*eA*e[5mC]*eA*eA*e[5mC]*e[5mC]*eT*eA*e[5mC]*eT*eA*e[5mC]*e[5mC]*eT*e[5mC]*eA) [compound 327893],100.0%,–,1.03,–,0.97,–,0.85,–,0.95,–,1.47,–
